Laboratory results published in publication PMC8097335, “A High‐Affinity Calmodulin‐Binding Site in the CyaA Toxin Translocation Domain is Essential for Invasion of Eukaryotic Cells” (Advanced Science, 2021).
pKd: −log10 of the molar value.

How the values were obtained:
calmodulin (CaM) = molecular target: T1, calmodulin (CaM) (Homo sapiens, UniProt P0DP23); assay: Peptide titrations by CaM followed by tryptophan fluorescence, and ITC (Kd for CaM); format: binding; conditions: for pKd: holo-CaM, from fluorescent titrations and ITC, 25 °C, average of at least three independent replicates; for pKd / ∆GKd for CaM: S.D. within ± 10%; for ∆GKd for CaM: ΔGKd = RTln(Kd); for Decrease of affinity for CaM relative to P454: from Table S3
T1 construct: made in house; host or cells: E. coli
Text: peptides by CaM and is expressed as follows: 𝐾𝐾 𝑑𝑑 = [𝑃𝑃 ]∗[𝐶𝐶𝐶𝐶𝐶𝐶 ][𝑃𝑃:𝐶𝐶𝐶𝐶𝐶𝐶] , given 𝐾𝐾𝑑𝑑[𝐶𝐶𝐶𝐶𝐶𝐶]= [𝑃𝑃 ][𝑃𝑃 :𝐶𝐶𝐶𝐶𝐶𝐶]and the fraction of complex, fP:CaM, i s: 𝑓𝑓𝑃𝑃:𝐶𝐶𝐶𝐶𝐶𝐶 = [𝑃𝑃 :𝐶𝐶𝐶𝐶𝐶𝐶 ][𝑃𝑃:𝐶𝐶𝐶𝐶𝐶𝐶]+[𝑃𝑃]= 11+ [𝑃𝑃 ]= 11+ 𝐾𝐾𝑑𝑑.

[1] = Peptide titrations by SUVs followed by tryptophan fluorescence (solution-to-membrane partition); format: physicochemical; conditions: for Partition coefficient KX: POPC:POPG 8:2 SUVs, buffer A pH 7.4, 25 °C, tryptophan fluorescence ratio 330/370 nm; for Partition coefficient KX / ∆GKx for POPC POPG 8:2: S.D. within ± 10%; for pKd: converted from KX: [W]/KX = Kd, [W] = 55.5 M, read-out: Kd for POPC:POPG 8:2; for ∆GKx for POPC POPG 8:2: ∆GKx = -RT Ln Kx
Method: Lipid vesicles preparation
Small unilamellar vesicles (SUVs) and large unilamellar vesicles (LUVs) were prepared with POPC and POPG at a molar ratio of 8:2, at a lipid concentration of 10 mM in buffer A, as previously described 1. Briefly, SUVs and LUVs were prepared by reverse phase evaporation and filtered through polycarbonate filters of 1 μm and 0.2 μm of pore size diameter to obtain L UV. SUVs were further sonicated. The hydrodynamic diameters and mean net charge of the vesicles were measured by dynamic light scattering (DLS) and electrophoretic mobility, respectively, using a ZetaSizer NanoZS (Malvern Pananalytical , Orsay, France) 11.
Peptide titrations bySUV s and CaM followed by tryptophan fluorescence
Titrations were carried out with a FP-8200 Jasco spectrofluorimeter, equipped with a Pelt ie r - thermostated ETC-272T at 25°C. A bandwidth of 5 nm was used for both excitation and […]
(Hellma, France) with constant stirring. Fluorescence emission was recorded between 300 and […]
400 nm at a scan rate of 100 nm/min, with an excitation wavelength of 280 nm. Fluorescence emission spectra were corrected for SUV or CaM baselines . Fluorescence intensity ratio at 330 nm over 370 nm was use d to measure the partition coefficient (K X) of peptides between the solution andmembrane s 1, 12 and the affinity (K d) of peptides for CaM 13.
Determination of partition coefficient KX and dissociation constant Kd from […]
The partition coefficient KX is defined as the ratio of protein in the lipid (PL) and in buffer […]
(PW) pha se s 12, 14, expressed by: KKXX = [LL ]? , giving[PPWW ] [PPWW ]= [WW], where [W] the […]
concentration of water (55.5 M) and [L] the lipid concentration.
The fraction of peptide partitioned into the membrane, fPL, is equal to:
ffPPLL = [PPLL ][PPTT ]= [PPLL ][PPLL ]+[PPWW ]= 11+([PPWW ])= 11+( [WW]), where PT is the total concentration of peptides [PP TT ]= [PP LL ]+ [PP WW ]. […]
The equations a re fitted to the experimental data using the KaleidaGraph software, providing the KX and K d value s. The partition coefficient is related to the apparent dissociation constant:
KKXX × KKdd = [WW ] and to the free energy of partition ΔG Kx = -RTln(K X), where ΔG is the free energy in kcal/mol, R the gas constant (R = 1.98 x 10-3 kcal/mol/K) and T the temperature i n Kelvin. The free energy of peptide CaM interaction, ∆G Kd, is given by ΔG Kd = RTln(K d).
Sedimentation velocity-Analytical ultracentrifugation (SV -AUC) […]
ratio 1:1 (at 70 µM each). Samples were incubated 2h at 20°C in the ultracentrifuge and, then span at 42,000 rpm in an An-50 Ti rotor. […]

[2] = Membrane permeabilization of ANTS/DPX-loaded LUVs; conditions: for CP1/2, peptide concentration required to induce recovery of 50% of ANTS fluorescence intensity upon LUVs permeabilization: ANTS:DPX LUVs POPC:POPG 8:2, 0.45 mM lipid, buffer A pH 7.4, 25 °C, ex 390/em 515 nm, S.D. ± 5%
Method: To monitor membrane permeabilization induced by peptides, ANTS (fluorophore probe) and
DPX (quencher) were encapsulated into large unilamellar vesicles (LUVs). The LUVs were
prepared at a concentration of 10 mM lipid at a POPC:PO PG molar ratio of 8:2 containing 20
mM ANTS and 60 mM DPX. The multilamellar vesicle suspension was extrudedthrough 0.4-
and 0.2 μm polycarbonate filters to produce LUVs. The unencapsulated ANT S a nd DPX we re
removed by gel filtration with a 5 mL Sephadex G -25 column (GE Healthcare Life Sciences ).
For permeabilization assays, LUVs were incubated in buffer A at 0.45 mM lipid
concentration at 25°C in a 101-QS cuvette (Hellma, France) and under constant stirring.
excitation wavelength was set at 390 nm and the emission of ANTS was continuously
measured at 515 nm. The maximum intensity of permeabilization, corresponding to the
maximum recovery of ANTS fluorescence, was measured after addition of 0.1% of Triton
X100. The concentration of membrane-bound peptide s required to induce the recovery of half
intensity of the ANTS fluorescence (C P1/2) was extracted from the permeabilization intensity
a s a function of peptide concentration 1.
LUVs were incubated in buffer B at a lipid concentration of 0.45 mM.
After a few seconds of permeabilization,
holo-Ca M wa s added t o t he solution at a peptide:Ca M molar ratio of 1:3. EDT A wa s
subsequently added in excess to chelate calcium and convert holo -CaM to apo -C a M .

[3] = Synchrotron radiation circular dichroism, alpha-helical content (Bestsel); format: physicochemical; conditions: 25 °C, far-UV SRCD; for alpha-helical content, TFE 20%: 20% TFE; for alpha-helical content, POPC:POPG 8:2: SUVs POPC:POPG 8:2 at 2 mM lipid; for alpha-helical content, Solution: buffer A
Method: Synchrotron Radiation Circular Dichroism
Synchrotron radiation circular dichroism (SRCD) was performed on the DISCO beamline of the synchrotron SOLEIL (Saint -Aubin, France) . Spectra were recorded at 25°C with an integration time of 1.2 s and a bandwidth of 1 nm with a resolution of 1 nm. A far-UV spectrum represents the average of four individual scans. QS cells (Hellma, France) with a pathlength of 20, 50, 100 or 200 μm (depending on final protein concentrations) were used to record spectra in the fa r -UV range (from 190 to 250 nm). CD spectra of peptides and proteins were measured in buffers A and B, 20% of trifluoroethanol (TFE), in the presence of SUVs (POPC :PO PG 8: 2) or Ca M. Secondary structure content was estimated using Bestsel software […]
Table S8: Estimation of the α -helical content of P454-derived peptides. The secondary structure content is estimated using the on-line Bestsel software 17 available at http://bestsel.elte.hu/index.php. […]
peptide in buffer A, in 20% TFE and in the presence of POPC POPG (molar ratio 8:2) at 2 mM lipid concentration. The far -UV CD spectra of several P454-derived peptides are shown […]

Substance	pKd (calmodulin (CaM))	∆GKd for CaM (calmodulin (CaM))	Partition coefficient KX [1]	pKd [1]	∆GKx for POPC POPG 8:2 [1]	CP1/2, peptide concentration required to induce recovery of 50% of ANTS fluorescence intensity upon LUVs permeabilization [2]	alpha-helical content, TFE 20% [3]	alpha-helical content, POPC:POPG 8:2 [3]	alpha-helical content, Solution [3]	Decrease of affinity for CaM relative to P454 (calmodulin (CaM))	Vesicle permeabilization (in words) ([2]; ANTS:DPX LUVs POPC:POPG 8:2)
Ac-ASAHWGQRALQGAQAVAAAQRAVHAIALMTQ-NH2 [P454 L475A]	6.92	-9.4 kcal/mol	350 ×10^3	3.80	-7.7 kcal/mol	0.64 µM	45 ± 1%	15 ± 1%	5 ± 2%	–	–
Ac-ASAHAGQRAAQGAQAVAAAQRLVHAIALMTQ-NH2 [P454 W458A-L463A]	6.19	-8.4 kcal/mol	22 ×10^3	2.59	-5.9 kcal/mol	6.59 µM	56%	8 ± 2%	7 ± 1%	4 fold	–
Ac-ASAHWGQRAAQGAQAVAAAQRAVSAAALMTQ-NH2 [P454 L463A-L475A-H477S-I479A]	–	-6.8 kcal/mol	35 ×10^3	2.80	-6.2 kcal/mol	> 50 µM	38 ± 2%	5 ± 2%	4 ± 1%	–	do not permeabilize vesicles
Ac-ASAHWGQQALQGAQAVAAAQQLVHAIALMTQ-NH2 [P454 R12Q]	5.68	-7.7 kcal/mol	70 ×10^3	3.10	-6.6 kcal/mol	0.23 µM	50 ± 2%	23 ± 1%	8 ± 4%	–	–
Ac-ASAHWGQRALQGAQAVAAAQRLVHALALMTQ-NH2 [P454 I479L]	7.22	-9.8 kcal/mol	700 ×10^3	4.10	-7.9 kcal/mol	0.04 µM	51 ± 1%	51 ± 5%	13 ± 1%	–	–
Ac-ASAHWGQRALQGAQAVAAAQRAVSAAALMTQ-NH2 [P454 L475A-H477S-I479A]	5.81	-7.9 kcal/mol	18 ×10^3	2.50	-5.8 kcal/mol	9.03 µM	51 ± 4%	6 ± 2%	6 ± 2%	≈ 20 fold	–
Ac-ASAHWGQKALQGAQAVAAAQKLVHAIALMTQ-NH2 [P454 R12K]	7.30	-9.9 kcal/mol	220 ×10^3	3.59	-7.3 kcal/mol	0.09 µM	45 ± 4%	26 ± 1%	13 ±2%	–	–
